Tests used:
[1] = “free chlorine” (Hach Method 8021) and “total chlorine” (Hach Method 8167) in dosed simulated cooling water, Example 1; format: physicochemical; conditions: simulated cooling water pH 9.1, 38° C.
Text: The standard tests for determination of “free chlorine” and “total chlorine” are based on classical test procedures devised by Palin in 1974. See A. T. Palin, “Analytical Control of Water Disinfection With Special Reference to Differential DPD Methods For Chlorine, Chlorine Dioxide, Bromine, Iodine and Ozone”, J. Inst. Water Eng., 1974, 28, 139. While there are various modernized versions of the Palin procedures, the version of the tests for “free chlorine” and “total chlorine” used and to be used as the standard in connection with this invention, are fully described in Hach Water Analysis Handbook, 3rd edition, copyright 1997. The procedure for “free chlorine” is identified in that publication as Method 8021 appearing on page 335, whereas the procedure for “total chlorine” is Method 8167 appearing at page 379. Briefly, the “free chlorine” test involves introducing to the halogenated water a powder comprising DPD indicator powder and a buffer. “Free chlorine” present in the water reacts with the DPD indicator to produce a red to pink coloration. The intensity of the coloration depends upon the concentration of “free chlorine” species present in the sample. This intensity is measured by a calorimeter calibrated to transform the intensity reading into a “free chlorine” value in terms of mg/L Cl2. Similarly, the “total chlorine” test also involves use of DPD indicator and buffer. In this case, KI is present with the DPD and buffer whereby the halogen species present, including nitrogen-combined halogen, reacts with KI to yield iodine species which turn the DPD indicator to red/pink. The intensity of this coloration depends upon the sum of the “free chlorine” species and all other halogen species present in the sample. Consequently, this coloration is transformed by the colorimeter into a “total chlorine” value expressed as mg/L Cl2.
DBDAH and BCDMH Test Procedure • 1. To determine the amount of species present in the water which respond to the “free chlorine” and “total chlorine” tests, the water sample should be analyzed within a few minutes of being taken, and preferably immediately upon being taken. • 2. Hach Method 8021 for testing the amount of species present in the water sample which respond to the “free chlorine” test involves use of the Hach Model DR 2010 calorimeter. The stored program number for chlorine determinations is recalled by keying in “80” on the keyboard, followed by setting the absorbance wavelength to 530 nm by rotating the dial on the side of the instrument. Two identical sample cells are filled to the 10 mL mark with the water under investigation. One of the cells is arbitrarily chosen to be the blank. Using the 10 mL cell riser, this is admitted to the sample compartment of the Hach Model DR 2010, and the shield is closed to prevent stray light effects. Then the ZERO key is depressed. After a few seconds, the display registers 0.00 mg/L Cl2. To second cell, the contents of a DPD Free Chlorine Powder Pillow are added. This is shaken for 10-20 seconds to mix, as the development of a pink-red color indicates the presence of species in the water which respond positively to the DPD test reagent. Within one minute of adding the DPD “free chlorine” reagent to the 10 mL of water in the sample cell, the blank cell used to zero the instrument is removed from the cell compartment of the Hach Model DR 2010 and replaced with the test sample to which the DPD “free chlorine” test reagent was added. The light shield is then closed as was done for the blank, and the READ key is depressed. The result, in mg/L Cl2 is shown on the display within a few seconds. This is the “free chlorine” level of the water sample under investigation. • 3. Hach Method 8167 for testing the amount of species present in the water sample which respond to the “total chlorine” test involves use of the Hach Model DR 2010 calorimeter. […]

[2] = Iodometric titration of clear saturated stock solutions; format: physicochemical; conditions: 1 gram powder slurried in 100 mL deionized water, stirred 20 minutes, filtered
Method: Stock solutions of DBDMH and of BCDMH were prepared by slurrying 1 gram of the respective powders in 100 mL of deionized water. After stirring for 20 minutes, the insolubles were filtered to yield clear saturated stock solutions of DBDMH and BCDMH, respectively. Iodometric titration of the stock solutions using the potassium iodide-sodium thiosulfate method indicated the DBDMH solution contained 580 mg/L (as total chlorine), and the BCDMH solution contained 1100 mg/L (as total chlorine).

heterotrophic bacteria = assay: Cooling tower field trial, Example 2: heterotrophic bacteria plate counts
Text: The effectiveness of DBDMH and of BCDMH in microbiological control in cooling tower water was investigated in comparative tests. The cooling tower consisted of two 500-ton units in a crossflow design. The total system-contained volume was 14,000 gallons, and the tower contained medium efficiency film fill. Water from the tower cooled the coils of two 300-ton air conditioners (chillers). The tower typically operated at a pH of about 9.1 and 4 cycles of concentration. Blowdown was controlled by conductivity. Make-up water consisted of softened city water and which was of good quality. The make-up water was very low in calcium (<10 mg/L) but high in pH (8.7). The alkalinity was 145 mg/L (as CaCO3), and the silica level was 28 mg/L. The tower employed a conventional polyphosphate/molybdate/phosphonate program to provide corrosion and deposit control.
The BCDMH (20 lbs) was introduced to the water using 20-gram, 1-inch tablets charged to a solid halogen feeder (Neptune model BT-40, Neptune Chemical Pump Co., Inc., Lansdale, Pa.). Before each dose, the cooling tower water was sampled and enumerated for heterotrophic bacteria plate counts. Then the tower was slug dosed three times a week with BCDMH. Slug dosing was accomplished by diverting through the feeder containing the tablets a sidestream of the recirculating water for about 1 to 5 hours until a “free chlorine” dose of about 0.5 mg/L (as “free chlorine”) was obtained. The “total chlorine” dose was measured at the same time. After each dose the cooling water was sampled and enumerated for heterotrophic bacteria plate counts. As necessary, the feeder was replenished with more BCDMH tablets.
For example, before the biocide dose the bacteria levels in the bulk water ranged from 10^5 to 10^4 CFUs/mL. After the biocide dose the bacteria levels in the bulk water were reduced to 10^4 to 10^3.
After emptying the feeder of BCDMH tablets, 20 lbs of DBDMH granules was charged into the feeder. Thereupon the same procedure as described above for the BCDMH was carried out except for the fact that is was unnecessary to add any additional DBDMH to the feeder during the 30-day test period. In fact, the total weight of DBDMH consumed during the test was only 7 lbs.

[3] = Storage of tablets at 50° C. for 30 days, titration of active bromine, Example 24; format: physicochemical
Text: 1,3-Dibromo-5,5-dimethylhydantoin was blended with micronized polyethylene wax (MPP-611) such that the blend contained 3 wt % of the wax. A sample of the blend (5 g) was introduced to a die made from Hastelloy® C alloy, and compacted to a pressure of 5000 psi. Three more samples (5 g each) were compacted in the same manner, and each time a single tablet was extracted from the die after the pressure had been released. In each case, before filling the die, its interior surfaces were lightly dusted with micronized polypropylene wax to serve as a lubricant. The tablets were manually broken into two equally-sized pieces. One half of each tablet was crushed into a powder with a mortar and pestle, and the powder was titrated to determine its wt % of active bromine. The other half of each tablet was placed in a sealed glass vial and placed in an oven at 50° C. After 30 days, the samples were removed from the oven, ground up, and titrated to determine its wt % of active bromine. For comparative purposes, a control sample of commercially produced 1,3-dibromo-5,5-dimethylhydantoin having an average particle size of about 64.5μ (containing no micronized polyethylene wax) was subjected to the same operations.
Table 16 lists the results obtained for four samples of 1,3-dibromo-5,5-dimethylhydantoin/3 wt % micronized polyethylene wax blends, along with the control sample containing no additive.

[4] = dosed to 1 mg/L as total chlorine, Time 0 hr
[5] = Time 0.5 hr, percentage of Time 0 value
[6] = Time 1 hr, percentage of Time 0 value
[7] = Time 1.5 hr, percentage of Time 0 value
[8] = Time 2 hr, percentage of Time 0 value
[9] = Time 3 hr, percentage of Time 0 value
[10] = Time 4 hr, percentage of Time 0 value
[11] = Time 5 hr, percentage of Time 0 value
[12] = Time 6 hr, percentage of Time 0 value

Q: What does the source list for `CC1(C)C(=O)N(Cl)C(=O)N1Br` [BCDMH, N,N′-bromochloro-5,5-dimethylhydantoin, reference compound]?
A: Free Cl2 [1, 4]: 23.1; Total Cl2 [1, 4]: 100; % hydrolysis to Free Cl2 ([1]; Time 0 hr): 23.1%; % hydrolysis to Free Cl2 ([1]; Time 0.5 hr): 24.7%; Free Cl2 [1, 5]: 25.6%; Total Cl2 [1, 5]: 104%; % hydrolysis to Free Cl2 ([1]; Time 1 hr): 23.1%; Free Cl2 [1, 6]: 23.1%; Total Cl2 [1, 6]: 100%; % hydrolysis to Free Cl2 ([1]; Time 1.5 hr): 19.4%; Free Cl2 [1, 7]: 17.9%; Total Cl2 [1, 7]: 92.3%; % hydrolysis to Free Cl2 ([1]; Time 2 hr): 18.8%; Free Cl2 [1, 8]: 16.6%; Total Cl2 [1, 8]: 88.5%; % hydrolysis to Free Cl2 ([1]; Time 3 hr): 18.8%; Free Cl2 [1, 9]: 16.6%; Total Cl2 [1, 9]: 88.5%; % hydrolysis to Free Cl2 ([1]; Time 4 hr): 38.7%; Free Cl2 [1, 10]: 30.7%; Total Cl2 [1, 10]: 79.5%; % hydrolysis to Free Cl2 ([1]; Time 5 hr): 20%; Free Cl2 [1, 11]: 15.4%; Total Cl2 [1, 11]: 76.9%; % hydrolysis to Free Cl2 ([1]; Time 6 hr): 14.3%; Free Cl2 [1, 12]: 10.2%; Total Cl2 [1, 12]: 71%; halogen content of saturated stock solution (as total chlorine) [2]: 1100 mg/L; average reduction of heterotrophic bacterial levels in the bulk water (heterotrophic bacteria; biocide dose 0.5 mg/L “free chlorine”): 1 order of magnitude; bacteria levels in the bulk water after the biocide dose (heterotrophic bacteria; biocide dose 0.5 mg/L “free chlorine”, before dose 10^5 to 10^4 CFUs/mL): 10^4 to 10^3 CFUs/mL; Bacteria reduction (heterotrophic bacteria; slug dose 3 times/week, 0.5 ppm free Cl2, cooling tower water): 1.5-2 logs

Q: Which “Wt % Active Bromine, After 30 days” value ([3]; sealed glass vial in oven at 50° C., 30 days) does the source give for `CC1(C)C(=O)N(Br)C(=O)N1Br` [Control, 1,3-dibromo-5,5-dimethylhydantoin] here?
A: 55.2 Wt %

Q: And the “Wt % Active Bromine, Initial” value ([3]; tablet half crushed and titrated before storage)?
A: 55.3 Wt %

From patent US7579018B2, “Microbiological control in aqueous systems” (Albemarle Corporation, priority 2000, dated 2009)
